These results are taken from US7160915B2, “N-methyl-substituted benzamidazoles” (Warner-Lambert Company, LLC, priority 2003, dated 2007).

The test system of one data set is phosphorylation of MAP kinase (ERK) in murine colon 26 (C26) carcinoma cells. The experiment in a line: Cellular assay for measuring MEK inhibition: inhibition of ERK phosphorylation, C26ELSA (pERK ELISA). The format is cell-based. The conditions noted are these: Mus musculus, 1 h, C26 cells treated one hour with test compound. The method, then:
(§1) Cellular Assay for Measuring MEK Inhibition
(§2) MEK inhibitors were evaluated by determining their ability to inhibit phosphorylation of MAP kinase (ERK) in murine colon 26 (C26) carcinoma cells. Since ERK1 and ERK2 represent the only known substrates for MEK1 and MEK2, the measurement of inhibition of ERK phosphorylation in cells provides direct read out of cellular MEK inhibition by the compounds of the invention. Detection of phosphorylation of ERK was carried out either by Western blot or ELISA format. Briefly, the assays involve treatment of exponentially growing C26 cells with varying concentrations of the test compound (or vehicle control) for one hour at 35° C. For Western blot assay, cells were rinsed free of compound/vehicle and lysed in a solution containing 50 mM NaCl, 50 mM glycerol phosphate, 10 mM HEPES, pH […], 1% Triton X-100, 1 mM Na3VO4, 100 μM PMSF, 10 μM leupeptin and 10 μM pepstatin. Supernatants were then subjected to gel electrophoresis and hybridized to a primary antibody recognizing dually phosphorylated ERK1 and ERK2. To evaluate total MAPK levels, blots were subsequently ‘stripped’ and re-probed with a 1:1 mixture of polyclonal antibodies recognizing unphosphorylated ERK1 and ERK2. For pERK ELISA assay, pERK TiterZyme Enzyme immunometric Assay kits were acquired from Assay Designs, Inc (Ann Arbor, Mich.). Briefly, cells were harvested in lysis solution containing 50 mM β-glycerophosphate, 10 mM HEPES, pH5.4, 50 mM NaCl, 2mM EDTA and 1% SDS and protein lysates were diluted 1:15 with supplied Assay buffer prior to the execution of the assay. The subsequent steps were carried out essentially as recommended by the manufacturer.
(§3) The inhibition data generated by the above protocol is disclosed in Table I. If several concentrations of inhibitor were tested, IC50 values (the concentration which gives 50% inhiition) were determined graphically from the dose response curve for % inhibition. Otherwise, percent inhibitions at measured concentrations are reported.
(§4) Table I. Cellular Inhibition of ERK Phosphorylation by Compounds of the Invention
For the compound `Cn1cnc2c(F)c(Nc3ccc(I)cc3F)c(C(=O)NCCCO)cc21` [Compound 1], the IC50 was found to be 0.55 µM. In turn, `Cn1cnc2c(F)c(Nc3ccc(I)cc3F)c(C(N)=O)cc21` [Compound 23] showed an IC50 of 0.00842 µM. In the case of `CCc1ccc(Nc2c(C(N)=O)cc3c(ncn3C)c2F)c(F)c1` [Compound 42], the IC50 is 0.28 µM. Against the preceding compound, the IC50 is about 33-fold higher.

System in the next data set: not given
Assay: not given
Settings: not given
In the case of `Cn1cnc2c(F)c(Nc3ccc(I)cc3F)c(C(N)=O)cc21` [Example 2], the melting point is 265 to 268 °C (dec.).

Regarding `Cc1cc(I)ccc1Nc1c(-c2nnc(N)o2)cc2c(ncn2C)c1F` [Example 4, [6-(5-amino-[1,3,4]oxadiazol-2-yl)-4-fluoro-1-methyl-1H-benzoimidazol-5-yl]-(4-iodo-2-methyl-phenyl)-amine], the melting point was in the range of 258 to 260 °C.

The subject of the next data set is phosphorylation of MAP kinase (ERK) in murine colon 26 (C26) carcinoma cells. The experiment in a line: Cellular assay for measuring MEK inhibition: inhibition of ERK phosphorylation, C26CPA1. The format is cell-based. To be noted: Mus musculus, 1 h, C26 cells treated one hour with test compound. Here is the method: as §1, §2, §3, §4
With `Cn1cnc2c(F)c(Nc3ccc(I)cc3F)c(-c3nnc(NCCO)o3)cc21` [Compound 6], the IC50 turned out to be 0.569 µM. In the case of `Cc1cc(I)ccc1Nc1c(C(=O)NOCC2CC2)cc2c(ncn2C)c1F` [Compound 9], half-maximal inhibition (IC50) was put at 0.012 µM. The same measure, in the same setting: the figure for `COC(=O)c1cc2c(ncn2C)c(F)c1Nc1ccc(I)cc1C` [Compound 11] is 1 µM; for `COC(=O)Cn1cnc2c(F)c(Nc3ccc(I)cc3C)c(C(=O)NOCC3CC3)cc21` [Compound 12] it is 0.022 µM.

Regarding `Cc1cc(I)ccc1Nc1c(C(=O)NOCCO)cc2c(ncn2C)c1F` [Compound 13], 0.0034 µM corresponded to half-maximal inhibition (IC50). Take `CCCn1cnc2c(F)c(Nc3ccc(I)cc3C)c(C(=O)NOCC3CC3)cc21` [Compound 14]: half-maximal inhibition (IC50) required 0.028 µM.

For `Cc1cc(I)ccc1Nc1c(C(=O)NOCC(O)CO)cc2c(ncn2C)c1F` (stereo not shown) [Compound 15], the IC50 was 0.086 µM.

`Cc1cc(I)ccc1Nc1c(C(=O)NOCC2CC2)cc2c(ncn2CCCO)c1F` [Compound 16] had an IC50 of 0.11 µM. The same measure, in the same setting: the result for `CNCCONC(=O)c1cc2c(ncn2C)c(F)c1Nc1ccc(I)cc1C` [Compound 20] reads 0.19 µM. For the compound `Cc1cc(I)ccc1Nc1c(-c2nnc(N)o2)cc2c(ncn2C)c1F` [Compound 21], it took 0.268 µM to reach half-maximal inhibition (IC50). Still for that read-out and setting: the result for `Cc1cc(I)ccc1Nc1c(C(N)=O)cc2c(ncn2C)c1F` [Compound 22] reads 0.041 µM; that for `Cn1cnc2c(F)c(Nc3ccc(I)cc3F)c(C(N)=O)cc21` [Compound 23], 0.002 µM; that for `Cn1cnc2c(F)c(Nc3ccc(I)cc3F)c(C(=O)NCC(O)CO)cc21` (stereo not shown) [Compound 24], 0.556 µM. The compound `Cn1cnc2c(F)c(Nc3ccc(I)cc3F)c(C(=O)NCCO)cc21` [Compound 25] returned an IC50 of 0.122 µM. On the same count and under the same terms, the result for `Cn1cnc2c(F)c(Nc3ccc(I)cc3F)c(C(=O)NCCCO)cc21` [Compound 26] reads 0.15 µM; that for `Cc1cc(I)ccc1Nc1c(CO)cc2c(ncn2C)c1F` [Compound 28], 0.566 µM. Still for that read-out and setting: the result for `Cn1cnc2c(F)c(Nc3ccc(I)cc3F)c(C(=O)NO)cc21` [Compound 30] reads 0.0004 µM; that for `Cn1cnc2c(F)c(Nc3ccc(I)cc3F)c(C(=O)NCCCN)cc21` [Compound 31], 1 µM; that for `Cn1cnc2c(F)c(Nc3ccc(I)cc3F)c(C(=O)NOCCO)cc21` [Compound 32], 0.0019 µM.

For `Cn1cnc2c(F)c(Nc3ccc(I)cc3F)c(C(=O)NOC[C@H](O)CO)cc21` [Compound 34], the midpoint of inhibition, the IC50, lay at 0.022 µM. The same measure, in the same setting: the figure for `Cc1cc(I)ccc1Nc1c(C(=O)NOCC2CC2)cc2c(ncn2CC(O)CO)c1F` (stereo not shown) [Compound 35] is 0.00885 µM; for `CCc1ccc(Nc2c(C(=O)OC)cc3c(ncn3C)c2F)c(F)c1` [Compound 38] it is 0.23 µM; for `Cn1cnc2c(F)c(Nc3ccc(I)cc3F)c(CO)cc21` [Compound 40] it is 0.08 µM.
